A value given as a limit tells only on which side of the number the result lay.

By EC50 is commonly meant the concentration giving half of the maximal effect.

The subject of this experiment is Human RSV-A (“Long” strain). As to the kind of experiment: RSV in vitro cytoprotection assay (CPE, ATPlite) in HEp-2 cells. The experiment is classed as cell-based. The following applies: human respiratory syncytial virus, 96 h; HEp-2 cells, 4-day incubation, ATPlite readout; read-out: Human RSV-A (“Long” strain) EC50. An excerpt:
RSV is a single stranded negative sense RNA virus that causes respiratory tract infections which can be dangerous to infants, the elderly, and immunosuppressed individuals. Currently there is no vaccine, and therapeutic options are both costly and of limited effectiveness. These approved treatments are Ribavirin, and Palivizumab/Synagis (a monoclonal antibody). RSV has two genotypes, A and B, which differ primarily in the structure of the virus' surface “G” attachment protein. Our current primary screen focuses on RSV-A and uses an in vitro cytoprotection assay where compounds are added in 2-fold dilutions to cells which are then subjected to fully replicative viral particles. Cell viability is measured several days later along with separate measurements of compound cytotoxicity. This report focuses on the results of our most recent screening of compounds.
HEp-2 cells, (originally derived from tumors grown in irradiated-cortisonised weanling rats that had been injected with epidermoid carcinoma tissue from a person's larynx, but later found to be indistinguishable from HeLa cells by PCR DNA analysis), were used for the culturing of genotype A, “Long” strain RSV. Flasks were inoculated with RSV and viral stocks were collected once cytopathic effect (CPE) was greater than 90%. Viral stocks in 25% sucrose media were snap frozen using liquid nitrogen to increase viral stability. Viral stock titers were quantified by tissue culture infectious dose 50% (TCID50) using 8,000 cells per well and 3-fold viral dilutions across a 96-well plate, cultured for 4 days.
Following extensive parameter testing, the final assay is run as follows: HEp-2 cells are seeded into the inner 60 wells of a 96-well plate at 8,000 cells per well in a volume of 50 μL using Growth Media (DMEM without phenol red, 1% L-Glut, 1% Penn/Strep, 1% nonessential amino acids, 10% FBS). 2-Fold serial dilutions of control and test compounds are added to the wells in duplicate in a total volume of 25 μL. Viral stock is then added to the wells in a volume of […] the total volume of each well to 100 μL. Each 96-well plate has a control column of 6 wells with cells and virus but no compound (negative control, max CPE), a column with cells but no compound or virus (positive control, minimum CPE), and a column with no cells or virus or compound (background plate/reagent control). The control wells with cells but no virus are given an additional 25 uL of growth media containing an equal quantity of sucrose as those wells receiving the viral stock in order to keep consistent in media and volume conditions. The outer wells of the plate are filled with 125 μL of growth media to act as a thermal and evaporative moat around the test wells. Following a 4-day incubation period, the plates are read using ATPlite (50 uL added per well), which quantifies the amount of ATP (a measure of cell health) present in each well. Assay plates are read using the Envision luminometer. In parallel, cytotoxicity is examined on an additional 96-well plate treated in an identical manner, but substituting the 25 μL of viral stock for 25 μL of growth media. […] EC50 ranges are as follows: A<0.01 μM; B 0.01-0.05 μM; C>0.05 μM.
(ATP-based viability assays read luminescence as a measure of living cells.)
Turning to `Cc1cnc(N2CC3(CCOCC3)C2)c(C(=O)Nc2ccc(C(=O)N3CCc4cc(-c5nc6ccccc6[nH]5)sc4-c4ccc(F)cc43)cc2)c1` [Example 3], the concentration for a half-maximal effect (EC50) is under 10 nM.

Consider `O=C(Nc1c(F)cc(F)cc1F)c1cc2c(s1)-c1ccc(F)cc1N(C(=O)c1ccc(NC(=O)c3cc(F)cnc3N3CC4(CCOCC4)C3)cc1)CC2` [Example 4], for which the EC50 was over 50 nM.

Regarding `Cc1cnc(N2CC3(CCOCC3)C2)c(C(=O)Nc2ccc(C(=O)N3CCc4cc(C(=O)Nc5c(F)cccc5C(F)(F)F)sc4-c4ccc(F)cc43)cc2)c1` [Example 5], the EC50 was under 10 nM.

For the molecule `Cc1cnc(N2CC3(CCOCC3)C2)c(C(=O)Nc2ccc(C(=O)N3CCc4cc(C(=O)Nc5c(C)cccc5C)sc4-c4ccc(F)cc43)cc2)c1` [Example 6], the 50% effective concentration (EC50) was under 10 nM.

Turning to `Cc1cnc(N2CC3(CCOCC3)C2)c(C(=O)Nc2ccc(C(=O)N3CCc4cc(C(=O)Nc5c(C)cccc5F)sc4-c4ccc(F)cc43)cc2)c1` [Example 7], the EC50 is under 10 nM.

For the molecule `Cc1cnc(N2CC3(CCOCC3)C2)c(C(=O)Nc2ccc(C(=O)N3CCc4cc(C(=O)Nc5ccccc5F)sc4-c4ccc(F)cc43)cc2)c1` [Example 8], the EC50 is under 10 nM.

As to `Cc1cnc(N2CC3(CCOCC3)C2)c(C(=O)Nc2ccc(C(=O)N3CCc4cc(C(=O)Nc5c(Cl)cccc5Cl)sc4-c4ccc(F)cc43)cc2)c1` [Example 9], the EC50 is under 10 nM.

On to `O=C(Nc1ccc(C(=O)N2CCc3cc(-c4nc5ccccc5[nH]4)sc3-c3ccc(F)cc32)cc1)c1cc2ccccc2nc1N1CC2(CCOCC2)C1` [Example 10], for which the EC50 was 10 to 50 nM.

As for `Cc1cnc(N2CC3(CCOCC3)C2)c(C(=O)Nc2ccc(C(=O)N3CCc4cc(C(=O)Nc5c(C)cccc5C#N)sc4-c4ccc(F)cc43)cc2)c1` [Example 11], the EC50 was under 10 nM.

Consider `Cc1cnc(N2CC3(CCOCC3)C2)c(C(=O)Nc2ccc(C(=O)N3CCc4cc(C(=O)Nc5c(F)cccc5F)sc4-c4ccc(F)cc43)cc2)c1` [Example 12], for which the EC50 is under 10 nM.

On to `Cc1cnc(N2CC3(CCOCC3)C2)c(C(=O)Nc2ccc(C(=O)N3CCc4cc(C(=O)Nc5c(F)cc(F)cc5F)sc4-c4ccc(F)cc43)cc2)c1` [Example 13], for which the EC50 was under 10 nM.

`Cc1cccc(F)c1NC(=O)c1cc2c(s1)-c1ccc(F)cc1N(C(=O)c1ccc(NC(=O)c3cc4ccccc4nc3N3CC4(CCOCC4)C3)cc1)CC2` [Example 14]: the EC50 is under 10 nM.

With `O=C(Nc1c(F)cc(F)cc1F)c1cc2c(s1)-c1ccc(F)cc1N(C(=O)c1ccc(NC(=O)c3cc4ccccc4nc3N3CC4(CCOCC4)C3)cc1)CC2` [Example 15], the concentration giving a half-maximal response (EC50) is under 10 nM.

For `O=C(Nc1c(F)cccc1F)c1cc2c(s1)-c1ccc(F)cc1N(C(=O)c1ccc(NC(=O)c3cc4ccccc4nc3N3CC4(CCOCC4)C3)cc1)CC2` [Example 16], the EC50 is under 10 nM.

Consider `N#Cc1cnc(N2CC3(CCOCC3)C2)c(C(=O)Nc2ccc(C(=O)N3CCc4cc(C(=O)Nc5c(F)cc(F)cc5Cl)sc4-c4ccc(F)cc43)cc2)c1` [Example 17], for which the EC50 was 10 to 50 nM.

As for `N#Cc1cnc(N2CC3(CCOCC3)C2)c(C(=O)Nc2ccc(C(=O)N3CCc4cc(C(=O)Nc5c(Cl)cccc5Cl)sc4-c4ccc(F)cc43)cc2)c1` [Example 18], the EC50 lay in the range of 10 to 50 nM.

Turning to `O=C(Nc1c(F)cccc1F)c1cc2c(s1)-c1ccc(F)cc1N(C(=O)c1ccc(NC(=O)c3cccnc3N3CC4(CCOCC4)C3)cc1)CC2` [Example 19], the concentration for a half-maximal effect (EC50) is under 10 nM.

With `O=C(Nc1c(F)cccc1Cl)c1cc2c(s1)-c1ccc(F)cc1N(C(=O)c1ccc(NC(=O)c3cccnc3N3CC4(CCOCC4)C3)cc1)CC2` [Example 20], the concentration for a half-maximal effect (EC50) is under 10 nM.

For the molecule `O=C(Nc1c(F)cc(F)cc1F)c1cc2c(s1)-c1ccc(F)cc1N(C(=O)c1ccc(NC(=O)c3cccnc3N3CC4(CCOCC4)C3)cc1)CC2` [Example 22], the EC50 is under 10 nM.

With `O=C(Nc1c(F)cc(F)cc1Cl)c1cc2c(s1)-c1ccc(F)cc1N(C(=O)c1ccc(NC(=O)c3ccc(C(F)(F)F)nc3N3CC4(CCOCC4)C3)cc1)CC2` [Example 23], the EC50 lay within 10 to 50 nM.

Turning to `COc1ccc(C(=O)Nc2ccc(C(=O)N3CCc4cc(C(=O)Nc5c(F)cc(F)cc5Cl)sc4-c4ccc(F)cc43)cc2)c(N2CC3(CCOCC3)C2)n1` [Example 24], the EC50 was 10 to 50 nM.

Take `O=C(Nc1c(F)cc(F)cc1Cl)c1cc2c(s1)-c1ccc(F)cc1N(C(=O)c1ccc(NC(=O)c3cc4ccccc4nc3N3CC4(CCOCC4)C3)cc1)CC2` [Example 25]: the EC50 fell in the range of 10 to 50 nM.

For `O=C(Nc1c(F)cc(F)cc1Cl)c1cc2c(s1)-c1ccc(F)cc1N(C(=O)c1ccc(NC(=O)c3cc(F)cnc3N3CC4(CCOCC4)C3)cc1)CC2` [Example 26], the EC50 is under 10 nM.

Turning to `O=C(Nc1c(F)cc(F)cc1Cl)c1cc2c(s1)-c1ccc(F)cc1N(C(=O)c1ccc(NC(=O)c3ccc(-c4cccs4)nc3N3CC4(CCOCC4)C3)cc1)CC2` [Example 27], the EC50 lay within 10 to 50 nM.

Take `O=C(Nc1c(F)cc(F)cc1Cl)c1cc2c(s1)-c1ccc(F)cc1N(C(=O)c1ccc(NC(=O)c3cc(-c4cccs4)cnc3N3CC4(CCOCC4)C3)cc1)CC2` [Example 28]: the EC50 was 10 to 50 nM.

Consider `O=C(Nc1c(F)cc(F)cc1Cl)c1cc2c(s1)-c1ccc(F)cc1N(C(=O)c1ccc(NC(=O)c3cc(C(F)(F)F)cnc3N3CC4(CCOCC4)C3)cc1)CC2` [Example 29], for which the EC50 was 10 to 50 nM.

On to `O=C(Nc1c(F)cc(F)cc1Cl)c1cc2c(s1)-c1ccc(F)cc1N(C(=O)c1ccc(NC(=O)c3cc(C(F)(F)F)cnc3N3CCC4(CC3)COC4)cc1)CC2` [Example 30], for which the concentration giving a half-maximal response (EC50) fell in the range of 10 to 50 nM.

Regarding `O=C(Nc1c(F)cc(F)cc1Cl)c1cc2c(s1)-c1ccc(F)cc1N(C(=O)c1ccc(NC(=O)c3cc4ccccc4nc3N3C4CCC3COC4)cc1)CC2` [Example 32], the EC50 was over 50 nM.

Regarding `O=C(Nc1c(F)cc(F)cc1Cl)c1cc2c(s1)-c1ccc(F)cc1N(C(=O)c1ccc(NC(=O)c3cc4ccccc4nc3N3CCS(=O)(=O)CC3)cc1)CC2` [Example 33], the EC50 is over 50 nM.

Take `O=C(Nc1c(F)cc(F)cc1Cl)c1cc2c(s1)-c1ccc(F)cc1N(C(=O)c1ccc(NC(=O)c3cc4ccccc4nc3N3CCCS(=O)(=O)CC3)cc1)CC2` [Example 34]: the EC50 is over 50 nM.

For the molecule `O=C(Nc1c(F)cccc1F)c1cc2c(s1)-c1ccc(F)cc1N(C(=O)c1ccc(NC(=O)c3cc(F)cnc3N3CC4(CCOCC4)C3)cc1)CC2` [Example 35], the half-maximal effective concentration (EC50) is under 10 nM.

Consider `Cc1cccc(F)c1NC(=O)c1cc2c(s1)-c1ccc(F)cc1N(C(=O)c1ccc(NC(=O)c3cc(F)cnc3N3CC4(CCOCC4)C3)cc1)CC2` [Example 36], for which the 50% effective concentration (EC50) is under 10 nM.

Take `O=C(Nc1c(F)cccc1Cl)c1cc2c(s1)-c1ccc(F)cc1N(C(=O)c1ccc(NC(=O)c3cc(F)cnc3N3CC4(CCOCC4)C3)cc1)CC2` [Example 37]: the EC50 is under 10 nM.

Regarding `O=C(Nc1ccc(C(=O)N2CCc3cc(-c4nc5ccccc5[nH]4)sc3-c3ccc(F)cc32)cc1)c1cccnc1N1CC2(CCOCC2)C1` [Example 38], the EC50 was in the range of 10 to 50 nM.

Regarding `O=C(Nc1ccc(C(=O)N2CCc3cc(-c4nc5ccc(F)cc5[nH]4)sc3-c3ccc(F)cc32)cc1)c1cccnc1N1CC2(CCOCC2)C1` [Example 39], the EC50 lay in the range of 10 to 50 nM.

With `O=C(Nc1ccc(C(=O)N2CCc3cc(-c4nc5cccc(F)c5[nH]4)sc3-c3ccc(F)cc32)cc1)c1cccnc1N1CC2(CCOCC2)C1` [Example 40], the EC50 was 10 to 50 nM.
